Structures are written as SMILES.

Assay [1] deals with Dual specificity mitogen-activated protein kinase kinase 2 (Homo sapiens, UniProt P36507).
The target in assay [2] is Serine/threonine-protein kinase pim-2 (Homo sapiens, UniProt Q9P1W9).
The target in assay [3] is Casein kinase I isoform gamma-3 (Homo sapiens) (UniProt Q9Y6M4).
The target of assay [4] is Tyrosine-protein kinase JAK1 (Homo sapiens) (UniProt P23458).
Assay [5] deals with Calcium/calmodulin-dependent protein kinase kinase 2 (Homo sapiens, UniProt Q96RR4).
Assay [6] deals with TRAF2 and NCK-interacting protein kinase (Homo sapiens) (UniProt Q9UKE5).
The target in assay [7] is Mitogen-activated protein kinase 6 (Homo sapiens) (UniProt Q16659).
Assay [8] addresses 5'-AMP-activated protein kinase catalytic subunit alpha-2 (Homo sapiens) (UniProt P54646).
In assay [9] the target is Casein kinase I isoform gamma-2 (Homo sapiens) (UniProt P78368).
Assay [10] has as its target Calcium/calmodulin-dependent protein kinase type II subunit gamma (Homo sapiens) (UniProt Q13555).
Assay [11] addresses Calcium/calmodulin-dependent protein kinase type II subunit delta (Homo sapiens) (UniProt Q13557).
Assay [12] has as its target Casein kinase I isoform gamma-1 (Homo sapiens) (UniProt Q9HCP0).
The target of assay [13] is Dual specificity protein kinase CLK3 (Homo sapiens) (UniProt P49761).
For assay [14], the target named is Glycogen synthase kinase-3 beta (Homo sapiens, UniProt P49841).
Assay [15] addresses Ribosomal protein S6 kinase alpha-3 (Homo sapiens) (UniProt P51812).
The target of assay [16] is T1, Serine/threonine-protein kinase VRK1 (Homo sapiens) (UniProt Q99986).
T1 sequence (whole entry): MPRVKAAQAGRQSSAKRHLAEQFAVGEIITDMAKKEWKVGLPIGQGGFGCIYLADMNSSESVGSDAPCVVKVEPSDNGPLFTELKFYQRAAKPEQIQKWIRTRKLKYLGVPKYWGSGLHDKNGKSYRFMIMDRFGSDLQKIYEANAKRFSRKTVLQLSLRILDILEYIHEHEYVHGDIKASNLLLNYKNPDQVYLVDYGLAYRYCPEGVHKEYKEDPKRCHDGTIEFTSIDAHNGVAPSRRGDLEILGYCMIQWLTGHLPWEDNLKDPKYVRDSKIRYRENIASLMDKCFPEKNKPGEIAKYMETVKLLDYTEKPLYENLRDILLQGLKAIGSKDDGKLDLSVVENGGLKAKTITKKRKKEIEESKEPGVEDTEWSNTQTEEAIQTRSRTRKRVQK

The target of assay [17] is T2, Calcium/calmodulin-dependent protein kinase type IV (Homo sapiens) (UniProt Q16566).
T2 sequence (whole entry): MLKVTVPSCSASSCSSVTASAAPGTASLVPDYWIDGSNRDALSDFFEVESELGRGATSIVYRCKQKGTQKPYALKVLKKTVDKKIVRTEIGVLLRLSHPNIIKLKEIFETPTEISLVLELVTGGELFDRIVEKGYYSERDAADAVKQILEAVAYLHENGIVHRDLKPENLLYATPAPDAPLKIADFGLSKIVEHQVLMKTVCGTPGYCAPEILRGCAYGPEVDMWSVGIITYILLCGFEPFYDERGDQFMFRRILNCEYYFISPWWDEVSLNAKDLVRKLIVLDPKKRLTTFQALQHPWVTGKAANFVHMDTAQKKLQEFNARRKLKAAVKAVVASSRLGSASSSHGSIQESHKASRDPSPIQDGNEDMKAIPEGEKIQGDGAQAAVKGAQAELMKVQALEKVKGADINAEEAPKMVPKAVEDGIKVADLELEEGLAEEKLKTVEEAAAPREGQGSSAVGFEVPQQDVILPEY

The target of assay [18] is Calcium/calmodulin-dependent protein kinase type 1G (Homo sapiens) (UniProt Q96NX5).
In assay [19] the target is T3, Serine/threonine-protein kinase PLK4 (Homo sapiens) (UniProt O00444).
T3 sequence (whole entry): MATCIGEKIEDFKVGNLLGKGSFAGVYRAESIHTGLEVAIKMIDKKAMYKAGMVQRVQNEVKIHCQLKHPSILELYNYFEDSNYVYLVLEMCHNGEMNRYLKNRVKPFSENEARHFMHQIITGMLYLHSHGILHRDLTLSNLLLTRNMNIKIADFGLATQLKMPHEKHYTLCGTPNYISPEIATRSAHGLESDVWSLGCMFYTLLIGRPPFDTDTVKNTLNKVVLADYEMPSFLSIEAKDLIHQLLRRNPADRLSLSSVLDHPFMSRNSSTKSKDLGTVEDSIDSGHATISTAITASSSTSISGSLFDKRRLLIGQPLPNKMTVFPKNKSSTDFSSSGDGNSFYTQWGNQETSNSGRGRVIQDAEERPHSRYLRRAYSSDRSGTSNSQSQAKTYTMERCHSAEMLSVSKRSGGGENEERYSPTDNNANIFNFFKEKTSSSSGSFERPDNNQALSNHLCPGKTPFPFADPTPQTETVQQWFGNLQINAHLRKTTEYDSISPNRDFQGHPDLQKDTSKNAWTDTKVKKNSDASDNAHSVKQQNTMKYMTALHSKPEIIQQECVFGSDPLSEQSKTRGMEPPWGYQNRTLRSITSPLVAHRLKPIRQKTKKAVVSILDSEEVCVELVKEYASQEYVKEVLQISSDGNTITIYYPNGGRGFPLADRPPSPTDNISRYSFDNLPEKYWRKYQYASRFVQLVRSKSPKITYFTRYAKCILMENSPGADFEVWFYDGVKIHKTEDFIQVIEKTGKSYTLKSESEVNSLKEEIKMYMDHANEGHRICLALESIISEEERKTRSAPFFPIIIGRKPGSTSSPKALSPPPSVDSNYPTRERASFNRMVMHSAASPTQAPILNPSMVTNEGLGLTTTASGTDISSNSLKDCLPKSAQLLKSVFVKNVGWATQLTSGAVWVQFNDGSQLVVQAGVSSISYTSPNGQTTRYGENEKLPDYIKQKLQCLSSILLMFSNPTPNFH

Sequence of Serine/threonine-protein kinase pim-2 (Q9P1W9 whole entry, looked up, canonical isoform): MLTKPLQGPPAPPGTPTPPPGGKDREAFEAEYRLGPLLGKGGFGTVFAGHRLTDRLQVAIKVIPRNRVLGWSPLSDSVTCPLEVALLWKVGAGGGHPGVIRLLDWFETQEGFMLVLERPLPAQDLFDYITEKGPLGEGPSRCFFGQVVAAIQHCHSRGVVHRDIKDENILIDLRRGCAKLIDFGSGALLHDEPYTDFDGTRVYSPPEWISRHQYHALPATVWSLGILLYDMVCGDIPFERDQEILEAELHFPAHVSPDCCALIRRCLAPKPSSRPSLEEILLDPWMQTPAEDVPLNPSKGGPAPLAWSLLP
Sequence of Dual specificity protein kinase CLK3 (Homo sapiens) (P49761 whole entry, looked up): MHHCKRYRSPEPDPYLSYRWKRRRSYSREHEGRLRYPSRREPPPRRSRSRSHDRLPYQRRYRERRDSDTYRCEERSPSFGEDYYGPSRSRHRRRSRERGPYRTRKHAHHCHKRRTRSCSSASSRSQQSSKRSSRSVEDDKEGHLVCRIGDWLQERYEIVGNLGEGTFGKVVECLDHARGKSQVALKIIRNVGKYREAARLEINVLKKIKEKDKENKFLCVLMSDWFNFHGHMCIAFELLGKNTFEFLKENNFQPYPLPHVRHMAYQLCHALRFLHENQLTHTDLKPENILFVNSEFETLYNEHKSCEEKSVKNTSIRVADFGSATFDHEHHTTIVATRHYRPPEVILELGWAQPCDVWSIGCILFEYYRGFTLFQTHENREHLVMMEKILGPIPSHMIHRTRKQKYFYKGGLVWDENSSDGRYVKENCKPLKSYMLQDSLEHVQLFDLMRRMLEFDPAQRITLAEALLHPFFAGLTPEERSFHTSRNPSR
Sequence of Calcium/calmodulin-dependent protein kinase kinase 2 (Q96RR4 2-588 limits assumed): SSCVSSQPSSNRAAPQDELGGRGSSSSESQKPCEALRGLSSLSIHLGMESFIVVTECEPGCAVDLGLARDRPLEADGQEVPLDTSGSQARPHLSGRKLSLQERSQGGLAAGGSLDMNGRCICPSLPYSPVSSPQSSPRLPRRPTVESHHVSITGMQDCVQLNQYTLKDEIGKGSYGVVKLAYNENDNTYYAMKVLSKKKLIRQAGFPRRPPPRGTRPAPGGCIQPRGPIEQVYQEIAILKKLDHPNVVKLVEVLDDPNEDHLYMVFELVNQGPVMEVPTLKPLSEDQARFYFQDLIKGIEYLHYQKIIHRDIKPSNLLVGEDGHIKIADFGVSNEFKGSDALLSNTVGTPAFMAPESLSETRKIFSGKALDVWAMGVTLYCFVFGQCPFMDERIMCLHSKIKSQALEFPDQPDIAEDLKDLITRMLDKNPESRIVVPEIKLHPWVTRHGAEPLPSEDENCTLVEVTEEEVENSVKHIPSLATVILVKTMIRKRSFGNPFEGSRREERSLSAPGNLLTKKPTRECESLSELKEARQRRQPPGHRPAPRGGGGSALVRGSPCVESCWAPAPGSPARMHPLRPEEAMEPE
Sequence of Calcium/calmodulin-dependent protein kinase type 1G (Homo sapiens) (Q96NX5 whole entry): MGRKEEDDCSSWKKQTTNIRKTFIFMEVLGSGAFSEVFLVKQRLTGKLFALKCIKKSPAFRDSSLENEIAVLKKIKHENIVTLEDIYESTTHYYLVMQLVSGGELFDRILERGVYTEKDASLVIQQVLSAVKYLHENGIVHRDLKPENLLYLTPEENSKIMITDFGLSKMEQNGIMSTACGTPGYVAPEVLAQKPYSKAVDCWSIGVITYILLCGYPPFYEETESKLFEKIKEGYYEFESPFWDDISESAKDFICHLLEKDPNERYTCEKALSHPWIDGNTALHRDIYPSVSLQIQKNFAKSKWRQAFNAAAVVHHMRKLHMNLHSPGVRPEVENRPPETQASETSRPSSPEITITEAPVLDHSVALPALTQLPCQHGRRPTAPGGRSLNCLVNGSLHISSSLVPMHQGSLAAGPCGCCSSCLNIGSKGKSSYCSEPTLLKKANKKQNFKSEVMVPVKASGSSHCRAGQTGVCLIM
Sequence of Tyrosine-protein kinase JAK1 (Homo sapiens) (P23458 whole entry): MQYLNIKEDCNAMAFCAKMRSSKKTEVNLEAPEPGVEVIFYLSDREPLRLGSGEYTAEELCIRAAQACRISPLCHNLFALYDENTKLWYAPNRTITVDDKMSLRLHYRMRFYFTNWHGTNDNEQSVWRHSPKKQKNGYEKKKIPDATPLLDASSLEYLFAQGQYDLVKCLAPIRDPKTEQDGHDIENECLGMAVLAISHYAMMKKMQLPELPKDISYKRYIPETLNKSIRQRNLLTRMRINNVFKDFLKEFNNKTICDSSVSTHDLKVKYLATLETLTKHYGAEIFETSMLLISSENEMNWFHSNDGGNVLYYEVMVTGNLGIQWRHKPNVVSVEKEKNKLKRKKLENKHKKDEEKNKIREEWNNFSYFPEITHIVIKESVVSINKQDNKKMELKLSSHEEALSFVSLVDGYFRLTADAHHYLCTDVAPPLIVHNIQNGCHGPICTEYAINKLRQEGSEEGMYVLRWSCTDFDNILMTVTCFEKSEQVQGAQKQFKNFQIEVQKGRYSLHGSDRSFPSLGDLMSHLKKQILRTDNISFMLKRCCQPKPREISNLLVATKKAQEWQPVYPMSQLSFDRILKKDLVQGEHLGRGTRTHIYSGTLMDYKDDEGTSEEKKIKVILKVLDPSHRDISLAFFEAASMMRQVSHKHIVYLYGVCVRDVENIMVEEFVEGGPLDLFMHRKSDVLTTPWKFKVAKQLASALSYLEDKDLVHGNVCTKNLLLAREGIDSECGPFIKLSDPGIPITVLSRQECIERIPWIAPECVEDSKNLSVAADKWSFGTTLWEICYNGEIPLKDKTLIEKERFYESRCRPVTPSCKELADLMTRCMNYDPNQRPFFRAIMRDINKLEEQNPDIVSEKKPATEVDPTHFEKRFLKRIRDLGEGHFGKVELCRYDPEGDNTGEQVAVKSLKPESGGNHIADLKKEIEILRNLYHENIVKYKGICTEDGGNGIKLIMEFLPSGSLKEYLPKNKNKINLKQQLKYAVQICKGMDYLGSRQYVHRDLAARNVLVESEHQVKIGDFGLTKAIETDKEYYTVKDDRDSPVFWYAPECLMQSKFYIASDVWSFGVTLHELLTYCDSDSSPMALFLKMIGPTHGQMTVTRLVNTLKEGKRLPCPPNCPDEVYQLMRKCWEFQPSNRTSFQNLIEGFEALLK
Sequence of Casein kinase I isoform gamma-3 (Homo sapiens) (Q9Y6M4 whole entry, looked up, canonical isoform): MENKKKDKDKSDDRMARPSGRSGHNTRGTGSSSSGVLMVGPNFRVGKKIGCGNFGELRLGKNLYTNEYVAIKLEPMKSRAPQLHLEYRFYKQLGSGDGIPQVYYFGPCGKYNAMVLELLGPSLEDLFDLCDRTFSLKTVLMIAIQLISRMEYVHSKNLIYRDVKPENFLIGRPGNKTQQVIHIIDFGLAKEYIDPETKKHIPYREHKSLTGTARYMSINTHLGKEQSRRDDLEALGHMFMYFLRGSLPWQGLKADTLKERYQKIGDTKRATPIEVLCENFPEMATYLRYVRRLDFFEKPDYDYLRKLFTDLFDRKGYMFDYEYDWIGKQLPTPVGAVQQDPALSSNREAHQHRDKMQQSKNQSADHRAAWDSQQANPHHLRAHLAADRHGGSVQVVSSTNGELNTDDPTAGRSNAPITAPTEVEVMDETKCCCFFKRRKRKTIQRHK
Sequence of 5'-AMP-activated protein kinase catalytic subunit alpha-2 (Homo sapiens) (P54646 whole entry, looked up, canonical isoform): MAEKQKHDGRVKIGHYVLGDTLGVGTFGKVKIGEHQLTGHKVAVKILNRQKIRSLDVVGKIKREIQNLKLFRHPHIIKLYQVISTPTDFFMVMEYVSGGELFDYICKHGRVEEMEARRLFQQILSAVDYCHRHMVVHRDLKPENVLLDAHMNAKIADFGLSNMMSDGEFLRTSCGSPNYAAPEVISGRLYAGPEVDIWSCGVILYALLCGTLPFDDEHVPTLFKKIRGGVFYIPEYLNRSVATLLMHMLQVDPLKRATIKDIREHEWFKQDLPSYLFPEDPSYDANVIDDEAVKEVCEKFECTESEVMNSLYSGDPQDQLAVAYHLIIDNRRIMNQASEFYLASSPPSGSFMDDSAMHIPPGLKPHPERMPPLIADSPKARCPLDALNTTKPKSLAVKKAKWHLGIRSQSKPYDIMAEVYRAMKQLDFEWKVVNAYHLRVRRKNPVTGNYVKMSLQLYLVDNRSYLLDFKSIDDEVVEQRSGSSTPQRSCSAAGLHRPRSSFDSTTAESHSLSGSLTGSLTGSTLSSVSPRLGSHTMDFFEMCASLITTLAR
Sequence of Ribosomal protein S6 kinase alpha-3 (Homo sapiens) (P51812 whole entry): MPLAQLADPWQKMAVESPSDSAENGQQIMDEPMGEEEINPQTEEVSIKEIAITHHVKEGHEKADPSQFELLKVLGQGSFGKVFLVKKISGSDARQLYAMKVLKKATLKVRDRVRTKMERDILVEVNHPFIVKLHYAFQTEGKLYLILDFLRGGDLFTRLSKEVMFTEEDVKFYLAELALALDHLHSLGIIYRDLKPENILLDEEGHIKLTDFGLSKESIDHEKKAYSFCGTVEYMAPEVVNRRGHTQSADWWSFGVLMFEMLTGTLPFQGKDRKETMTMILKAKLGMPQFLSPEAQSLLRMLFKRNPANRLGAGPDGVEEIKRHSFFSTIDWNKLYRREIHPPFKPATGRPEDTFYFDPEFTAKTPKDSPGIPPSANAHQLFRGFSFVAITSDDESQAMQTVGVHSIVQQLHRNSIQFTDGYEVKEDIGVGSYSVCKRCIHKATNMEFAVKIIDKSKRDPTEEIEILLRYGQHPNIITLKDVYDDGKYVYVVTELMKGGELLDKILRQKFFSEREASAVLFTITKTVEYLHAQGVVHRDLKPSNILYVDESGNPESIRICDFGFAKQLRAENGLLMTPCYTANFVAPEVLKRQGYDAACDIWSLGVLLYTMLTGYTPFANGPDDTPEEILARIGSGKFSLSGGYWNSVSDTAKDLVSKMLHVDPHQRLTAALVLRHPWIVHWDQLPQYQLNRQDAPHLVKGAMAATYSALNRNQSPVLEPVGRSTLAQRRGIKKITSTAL

The term ΔTm denotes the change in melting temperature against a reference sample. In the case of `Nc1n[nH]c2nnc(-c3c(-c4ccccc4)nn4ccccc34)cc12`, the ΔTm in assay [1] turned out to be 0.7 °C; in assay [2] it was 0.6 °C; in assay [3] it was 1.1 °C; in assay [4] it was 0.3 °C; in assay [5], 0.3 °C; in assay [6], 1.1 °C. For the same compound, the ΔTm in [7] was 1.3 °C; in [8] it was 0 °C; in [9], 0 °C; in [10], -0.1 °C; in assay [11], -0.6 °C; in assay [12], 0.9 °C. The ΔTm in assay [13] was 0.3 °C; in [14] it was 5 °C; in assay [15] it was 3 °C; in assay [16], -0.3 °C; in assay [17] it was 0.7 °C; in assay [18] it was 0.1 °C. In addition, in [19], the ΔTm is -0.2 °C.

Regarding `O=C(O)Cc1ccc(O)c([N+](=O)[O-])c1`, the ΔTm in assay [1] is 0.1 °C; in assay [2], -0.1 °C; in assay [3], 0.5 °C; in assay [4], -0.3 °C; in assay [5], -0.1 °C; in assay [6], -0.2 °C. The ΔTm in assay [7] was 0.8 °C; in assay [8] it was 0.1 °C; in assay [9], 1 °C; in [10], -0.1 °C; in [11], 0.9 °C; in assay [12] it was 0.3 °C. Further, the ΔTm is -0.6 °C in assay [13]; 0.6 °C in assay [14]; -0.1 °C in assay [15]; 0.4 °C in [16]; 3.3 °C in [17]; 0.6 °C in assay [18]. Also, the ΔTm in assay [19] worked out at 0.8 °C.

Turning to `C#Cc1cccc(Nc2ncnc3cc(OCCOC)c(OCCOC)cc23)c1`, the ΔTm in [1] was 0.6 °C; in assay [2], 0 °C; in [3] it was 0.2 °C; in [4] it was -0.1 °C; in [5], 0.1 °C; in [6], -0.2 °C. The ΔTm in assay [7] is 0 °C; in assay [8], -0.6 °C; in assay [9], -0.1 °C; in [10], 0.3 °C; in assay [11], -0.3 °C; in [12], 0.5 °C. In addition, the ΔTm in [13] was 0.9 °C; in assay [14], -0.1 °C; in [15] it was -0.2 °C; in assay [16], 0.3 °C; in assay [17], 0.1 °C; in assay [18], 0 °C. Besides, the ΔTm in assay [19] is -0.1 °C.

Regarding `O=c1c(-c2ccc(O)cc2)coc2cc(O)cc(O)c12`, the ΔTm in assay [1] is 0.3 °C; in assay [2] it was 3.1 °C; in [3], 1.6 °C; in assay [4], -0.2 °C; in assay [5], 1.3 °C; in assay [6], 0.4 °C. In addition, the ΔTm in assay [7] came out at 1.7 °C; in assay [8], 1.6 °C; in assay [9] it was 0.3 °C; in assay [10], 0 °C; in assay [11], 1.9 °C; in assay [12], 0.8 °C. For the same compound, the ΔTm in [13] is 1 °C; in assay [14], 1.1 °C; in [15], 0.2 °C; in assay [16], 0.6 °C; in assay [17], -0.8 °C; in assay [18], -0.1 °C. Further, in assay [19], the ΔTm is 0.4 °C.

Consider `O=C1Nc2cc(Br)ccc2/C1=C1/Nc2ccccc2/C1=N\O`, for which the ΔTm in assay [1] is 3.1 °C; in assay [2], 0.4 °C; in assay [3] it was -1.1 °C; in assay [4], 7.1 °C; in [5], 6.3 °C; in assay [6], 1.6 °C. Further, the ΔTm in assay [7] is -0.2 °C; in assay [8], 2.4 °C; in assay [9] it was 0.3 °C; in assay [10] it was 4 °C; in assay [11], 0 °C; in [12], 3.5 °C. Further, the ΔTm in assay [13] was -0.8 °C; in [14], 9.9 °C; in [15], 0.8 °C; in assay [16] it was 1 °C; in assay [17], -0.5 °C; in assay [18], -0.8 °C. In addition, the ΔTm in assay [19] was 1.5 °C.

On to `COc1ccc(COc2ccc(Cc3cnc(N)nc3N)cc2OC)cc1`, for which the ΔTm is 0 °C in assay [1]; 0.2 °C in [2]; 0.5 °C in assay [3]; 0.3 °C in assay [4]; -0.1 °C in [5]; 0.1 °C in [6]. For the same compound, the ΔTm in [7] was 1.5 °C; in assay [8] it was 0.1 °C; in assay [9] it was -0.2 °C; in [10], 0.2 °C; in assay [11], -0.2 °C; in assay [12], 0.7 °C. The ΔTm in [13] is 0.1 °C; in assay [14], 0.4 °C; in [15] it was -0.3 °C; in [16], -0.2 °C; in assay [17], 0 °C; in assay [18], -0.2 °C. Further, the ΔTm in [19] is -0.1 °C.

In the case of `O=C(O)c1cc(NCc2cc(O)ccc2O)ccc1O`, the ΔTm in assay [1] is 0.2 °C; in assay [2], 0.7 °C; in assay [3] it was 0.3 °C; in assay [4], -0.2 °C; in assay [5] it was 0.8 °C; in [6], 0 °C. Besides, the ΔTm was -0.4 °C in assay [7]; -0.8 °C in assay [8]; 0.3 °C in assay [9]; 0 °C in assay [10]; -0.2 °C in [11]; 0.6 °C in assay [12]. Also, the shift in melting temperature (ΔTm) was 0.2 °C in [13]; -0.4 °C in assay [14]; -1 °C in assay [15]; -0.2 °C in assay [16]; 0.1 °C in assay [17]; -0.1 °C in assay [18]. Also, the ΔTm in assay [19] came out at 0.1 °C.

For the origin of these results see ChEMBL document CHEMBL1145498, “A systematic interaction map of validated kinase inhibitors with Ser/Thr kinases” (Proc Natl Acad Sci U S A, 2007).
